Data from patent publication US8158628B2, “Sulfonylated 1,2,3,4-tetrahydropyrrolo[1,2-a]pyrazine compounds and their use as pharmaceuticals” (Gruenenthal GmbH, priority 2009, dated 2012).

Key:
[1] = target: T1, B1R of the rat (Rattus norvegicus, UniProt P97583); assay: FLIPR Ca2+ functional assay, B1R antagonism, rat B1R in CHO K1 cells; format: cell-based; conditions: test substance 10 μM; rB1R CHO K1 cells; agonist Des-Arg9 bradykinin at EC80; % of maximum achievable inhibition
T1 construct: expressed in transfected cells; host or cells: CHO K1 cells (Chinese hamster ovary), stably transfected
T1 sequence (P97583 1-337): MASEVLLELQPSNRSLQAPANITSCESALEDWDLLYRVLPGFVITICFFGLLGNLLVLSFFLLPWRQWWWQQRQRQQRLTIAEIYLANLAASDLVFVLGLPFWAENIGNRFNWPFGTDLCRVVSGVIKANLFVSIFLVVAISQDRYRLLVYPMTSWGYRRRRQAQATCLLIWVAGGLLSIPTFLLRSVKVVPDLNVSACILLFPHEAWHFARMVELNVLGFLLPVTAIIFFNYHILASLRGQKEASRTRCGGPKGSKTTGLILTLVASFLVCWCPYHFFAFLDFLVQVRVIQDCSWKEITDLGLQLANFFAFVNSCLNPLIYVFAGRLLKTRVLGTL
How it was run: (§1)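 Stably transfected CHO K1 cells loaded with Fluo-4; Ca2+ fluorescence read on FLIPR (ex 488/em 540 nm). Compound preincubated 10-20 min, then agonist at EC80: Lys-Des-Arg9 bradykinin (human) or Des-Arg9 bradykinin (rat). % inhibition vs maximal inhibition; IC50 from concentration series, n=2-3, N>=2.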

[2] = target: T2, human B1R (Homo sapiens, UniProt P46663); assay: FLIPR Ca2+ functional assay, B1R antagonism, human B1R in CHO K1 cells; format: cell-based; conditions: test substance 10 μM; hB1R CHO K1 cells; agonist Lys-Des-Arg9 bradykinin at EC80; % of maximum achievable inhibition
T2 construct: expressed in transfected cells; host or cells: CHO K1 cells (Chinese hamster ovary), stably transfected
T2 sequence (P46663 1-353): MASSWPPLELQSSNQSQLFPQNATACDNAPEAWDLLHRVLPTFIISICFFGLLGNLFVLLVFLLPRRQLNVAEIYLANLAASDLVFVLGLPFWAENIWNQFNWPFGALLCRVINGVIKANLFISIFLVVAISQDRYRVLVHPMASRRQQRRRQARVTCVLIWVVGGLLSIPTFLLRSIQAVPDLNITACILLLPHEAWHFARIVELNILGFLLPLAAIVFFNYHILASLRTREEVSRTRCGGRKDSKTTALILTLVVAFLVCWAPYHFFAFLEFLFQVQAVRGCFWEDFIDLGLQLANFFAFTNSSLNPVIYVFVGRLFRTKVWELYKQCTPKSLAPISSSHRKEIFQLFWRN
How it was run: as §1

| SMILES | inhibition at 10 µM [1] [%] | inhibition at 10 µM [2] [%] |
| --- | --- | --- |
| COc1ccc2cc(S(=O)(=O)N3CCn4cccc4C3CC(=O)NC3CCCc4cc(CN5C6CCCC5CC6)ccc43)ccc2c1 (centres unmarked) [Example 95, N-[6-(8-Azabicyclo[3.2.1]octan-8-yl-methyl)-1,2,3,4-tetrahydro-naphthalen-1-yl]-2-[2-[(6-methoxy-naphthalen-2-yl)sulfonyl]-1,2,3,4-tetrahydro-pyrrolo[1,2-a]pyrazin-1-yl]-acetamide] | 99.8 | 99.7 |
| COc1ccc2cc(S(=O)(=O)N3CCn4cccc4C3CC(=O)NC3CCc4cc(CN5CCN(C)CC5)ccc4C3)ccc2c1 (centres unmarked) [Example 99, 2-[2-[(6-Methoxy-naphthalen-2-yl)sulfonyl]-1,2,3,4-tetrahydro-pyrrolo[1,2-a]pyrazin-1-yl]-N-[6-[(4-methyl-piperazin-1-yl)-methyl]-1,2,3,4-tetrahydro-naphthalen-2-yl]-acetamide] | 101 | 99.8 |
| COc1ccc2cc(S(=O)(=O)N3CCn4cccc4C3CC(=O)NC3CCc4cc(CNCc5ccccc5)ccc4C3)ccc2c1 (centres unmarked) [Example 101, N-[6-[(Benzylamino)-methyl]-1,2,3,4-tetrahydro-naphthalen-2-yl]-2-[2-[(6-methoxy-naphthalen-2-yl)sulfonyl]-1,2,3,4-tetrahydro-pyrrolo[1,2-a]pyrazin-1-yl]-acetamide] | 103 | 99.9 |
| COc1ccc2cc(S(=O)(=O)N3CCn4cccc4C3CC(=O)NC3CCc4cc(CN5C6CCCC5CC6)ccc4C3)ccc2c1 (centres unmarked) [Example 103, N-[6-(8-Azabicyclo[3.2.1]octan-8-yl-methyl)-1,2,3,4-tetrahydro-naphthalen-2-yl]-2-[2-[(6-methoxy-naphthalen-2-yl)sulfonyl]-1,2,3,4-tetrahydro-pyrrolo[1,2-a]pyrazin-1-yl]-acetamide] | 102 | 100 |
| COc1ccc2cc(S(=O)(=O)N3CCn4cccc4C3CC(=O)NC3CCc4cc(CN5CCCc6ccccc65)ccc4C3)ccc2c1 (centres unmarked) [Example 105, 2-[2-[(6-Methoxy-naphthalen-2-yl)sulfonyl]-1,2,3,4-tetrahydro-pyrrolo[1,2-a]pyrazin-1-yl]-N-[6-(1,2,3,4-tetrahydro-quinolin-1-yl-methyl)-1,2,3,4-tetrahydro-naphthalen-2-yl]-acetamide] | 103 | 99.8 |
| Cc1ccc(S(=O)(=O)N2CCn3cccc3C2CC(=O)NC2CCCc3cc(CN4C5CCCC4CC5)ccc32)cc1 (centres unmarked) [Example 108, N-[6-(8-Azabicyclo[3.2.1]octan-8-yl-methyl)-1,2,3,4-tetrahydro-naphthalen-1-yl]-2-[2-(p-tolylsulfonyl)-1,2,3,4-tetrahydro-pyrrolo[1,2-a]pyrazin-1-yl]-acetamide] | 101 | 99.9 |
| O=C(CC1c2cccn2CCN1S(=O)(=O)c1cccc(C(F)(F)F)c1)NC1CCCc2cc(CN3C4CCCC3CC4)ccc21 (centres unmarked) [Example 109, N-[6-(8-Azabicyclo[3.2.1]octan-8-yl-methyl)-1,2,3,4-tetrahydro-naphthalen-1-yl]-2-[2-[[3-(trifluoromethyl)phenyl]sulfonyl]-1,2,3,4-tetrahydro-pyrrolo[1,2-a]pyrazin-1-yl]-acetamide] | 99.8 | 99.8 |
| Cc1ccc(S(=O)(=O)N2CCn3cccc3C2CC(=O)NC2CCCc3cc(CN4C5CCCC4CC5)ccc32)cc1Cl (centres unmarked) [Example 110, N-[6-(8-Azabicyclo[3.2.1]octan-8-yl-methyl)-1,2,3,4-tetrahydro-naphthalen-1-yl]-2-[2-[(3-chloro-4-methyl-phenyl)sulfonyl]-1,2,3,4-tetrahydro-pyrrolo[1,2-a]pyrazin-1-yl]-acetamide] | 98.8 | 99.9 |

The remaining lines, values ahead:

| inhibition at 10 µM [1] [%] | inhibition at 10 µM [2] [%] | SMILES |
| --- | --- | --- |
| 101 | 99.9 | COc1ccc2cc(S(=O)(=O)N3CCn4cccc4C3CC(=O)NC3CCc4cc(CN5CCCC5)ccc4C3)ccc2c1 (centres unmarked) [Example 94, 2-[2-[(6-Methoxy-naphthalen-2-yl)sulfonyl]-1,2,3,4-tetrahydro-pyrrolo[1,2-a]pyrazin-1-yl]-N-[6-(pyrrolidin-1-yl-methyl)-1,2,3,4-tetrahydro-naphthalen-2-yl]-acetamide] |
| 102 | 99.9 | COc1ccc2cc(S(=O)(=O)N3CCn4cccc4C3CC(=O)NC3CCc4cc(CN(C)C)ccc4C3)ccc2c1 (centres unmarked) [Example 96, N-[6-(Dimethylaminomethyl)-1,2,3,4-tetrahydro-naphthalen-2-yl]-2-[2-[(6-methoxy-naphthalen-2-yl)sulfonyl]-1,2,3,4-tetrahydro-pyrrolo[1,2-a]pyrazin-1-yl]-acetamide] |
| 102 | 99.8 | COc1ccc2cc(S(=O)(=O)N3CCn4cccc4C3CC(=O)NC3CCc4cc(CN(C)C(C)(C)C)ccc4C3)ccc2c1 (centres unmarked) [Example 97, N-[6-[(tert-Butyl-methyl-amino)-methyl]-1,2,3,4-tetrahydro-naphthalen-2-yl]-2-[2-[(6-methoxy-naphthalen-2-yl)sulfonyl]-1,2,3,4-tetrahydro-pyrrolo[1,2-a]pyrazin-1-yl]-acetamide] |
| 99.7 | 99.9 | COc1ccc2cc(S(=O)(=O)N3CCn4cccc4C3CC(=O)NC3CCCc4cc(CN5CCCC5)ccc43)ccc2c1 (centres unmarked) [Example 98, 2-[2-[(6-Methoxy-naphthalen-2-yl)sulfonyl]-1,2,3,4-tetrahydro-pyrrolo[1,2-a]pyrazin-1-yl]-N-[6-(pyrrolidin-1-yl-methyl)-1,2,3,4-tetrahydro-naphthalen-1-yl]-acetamide] |
| 103 | 99.8 | COc1ccc2cc(S(=O)(=O)N3CCn4cccc4C3CC(=O)NC3CCCc4cc(CNCc5ccccc5)ccc43)ccc2c1 (centres unmarked) [Example 100, N-[6-[(Benzylamino)-methyl]-1,2,3,4-tetrahydro-naphthalen-1-yl]-2-[2-[(6-methoxy-naphthalen-2-yl)sulfonyl]-1,2,3,4-tetrahydro-pyrrolo[1,2-a]pyrazin-1-yl]-acetamide] |
| 101 | 99.9 | Cc1ccc(S(=O)(=O)N2CCn3cccc3C2CC(=O)NC2CCCc3cc(CN(C)C)ccc32)cc1Cl (centres unmarked) [Example 102, 2-[2-[(3-Chloro-4-methyl-phenyl)sulfonyl]-1,2,3,4-tetrahydro-pyrrolo[1,2-a]pyrazin-1-yl]-N-[6-(dimethylaminomethyl)-1,2,3,4-tetrahydro-naphthalen-1-yl]-acetamide] |
| 103 | 99.9 | COc1ccc2cc(S(=O)(=O)N3CCn4cccc4C3CC(=O)NC3CCCc4cc(CN(C)C(C)(C)C)ccc43)ccc2c1 (centres unmarked) [Example 104, N-[6-[(tert-Butyl-methyl-amino)-methyl]-1,2,3,4-tetrahydro-naphthalen-1-yl]-2-[2-[(6-methoxy-naphthalen-2-yl)sulfonyl]-1,2,3,4-tetrahydro-pyrrolo[1,2-a]pyrazin-1-yl]-acetamide] |
| 101 | 100 | COc1ccc2cc(S(=O)(=O)N3CCn4cccc4C3CC(=O)NC3CCCc4cc(CN(C)C)ccc43)ccc2c1 (centres unmarked) [Example 106, N-[6-(Dimethylaminomethyl)-1,2,3,4-tetrahydro-naphthalen-1-yl]-2-[2-[(6-methoxy-naphthalen-2-yl)sulfonyl]-1,2,3,4-tetrahydro-pyrrolo[1,2-a]pyrazin-1-yl]-acetamide] |
| 98.4 | 99.3 | Cc1ccc(S(=O)(=O)N2CCn3cccc3C2CC(=O)NC2CCCc3cc(CN(C)C)ccc32)cc1 (centres unmarked) [Example 107, N-[6-(Dimethylaminomethyl)-1,2,3,4-tetrahydro-naphthalen-1-yl]-2-[2-(p-tolylsulfonyl)-1,2,3,4-tetrahydro-pyrrolo[1,2-a]pyrazin-1-yl]-acetamide] |
| 103 | 100 | Cc1ccc(S(=O)(=O)N2CCn3cccc3C2CC(=O)NC2CCCc3cc(CNCc4ccccc4)ccc32)cc1Cl (centres unmarked) [Example 111, N-[6-[(Benzylamino)-methyl]-1,2,3,4-tetrahydro-naphthalen-1-yl]-2-[2-[(3-chloro-4-methyl-phenyl)sulfonyl]-1,2,3,4-tetrahydro-pyrrolo[1,2-a]pyrazin-1-yl]-acetamide] |
| 102 | 99.8 | O=C(CC1c2cccn2CCN1S(=O)(=O)c1cccc(C(F)(F)F)c1)NC1CCCc2cc(CNCc3ccccc3)ccc21 (centres unmarked) [Example 112, N-[6-[(Benzylamino)-methyl]-1,2,3,4-tetrahydro-naphthalen-1-yl]-2-[2-[[3-(trifluoromethyl)phenyl]sulfonyl]-1,2,3,4-tetrahydro-pyrrolo[1,2-a]pyrazin-1-yl]-acetamide] |
